# Read-outs that look alike come from different tables or passages of the source.
# Legend:
# [1] = Oral toxicity (mortality) in the mouse, Table 1; format: in vivo; settings: mouse, in vivo, po, Swiss mice, 14 days
# Method: The mortality percentages caused by the products of the present invention administered orally to Swiss mice are shown in Table 1. The animals, free of specific pathological organism were housed in an air conditioned room from 24 to 48 hours before the start of the experiments. They were divided up into lots of 5 males and 5 females. With the animals unfed for 24 hours, the substances were administered intragastrically in a base of 6% gum arabic in a volume equal to 0.1 ml for 10 g of animal weight. The mortality was recorded at 14 days.
# % of mortality as a function of the dose
# phenylbenzoquinone (PBQ) = assay: Analgesic activity using phenylbenzoquinone (PBQ) as noxious agent, Table 2; format: in vivo, male Swiss mouse; settings: Mus musculus; for inhibition in vivo at 100 mg/kg: read-out: % of analgesic activity, 100 mg/kg, male Swiss mouse, PBQ; for inhibition in vivo at 200 mg/kg: read-out: % of analgesic activity, 200 mg/kg, male Swiss mouse, PBQ
# Method: The analgesic activity was determined with the male Swiss mouse using phenylbenzoquinone (PBQ) (a variation of the method of Siegmund et al, Proc. Soc. Exp. Med., […], 95, 729-31) as the noxious agent. Twenty-eightminutes after having administered the test products in a suspension in a 6% gum base, the PBQ solution was injected. The mice were then observed ca. 5 mn. for the next five minutes.
# % of analgesic activity as a function of
# the dose expressed in mg/kg
# [2] = tested on: number of escapes the animal made in 5 minutes; assay: Escape test, Table 3; format: in vivo, mouse; settings: 5 min, read-out: % of activity (variation of the number of escapes)
# Text: The products of the invention were always administered orally in 6% gum base.
# The notation NS signifies that the difference between the results noted for the product and the results noted for the excipient alone is not significant at the threshold 0.05 according to the Student t Test.
# [3] = tested on: stereotype induced by apomorphine; assay: Antagonism of the stereotype induced by apomorphine, Table 4; format: in vivo; settings: for % of activity vis-a-vis the stereotype induced by apomorphine: oral; for antagonism vis-a-vis the stereotype with apomorphine: in words
# Text: (§1) The psychotropic profile of the present invention products has been characterized with the animals in numerous tests some of whose results are shown hereinafter. The products of the invention were always administered orally in 6% gum base.
# % of activity vis-a-vis the stereotype
# induced by apomorphine as a function of the
# administered dose expressed in mg/kg
# [4] = tested on: ptosis induced by reserpine; assay: Antagonism of ptosis induced by reserpine, Table 6; format: in vivo; settings: read-out: % of inhibition of ptosis induced by reserpine
# Text: as §1
# (§2) Certain tests made it possible to show antidepressive activities. These are tests of antagonism to the effects of reserpine, oxotremorine (according to Everett G. M. et al, Science, 1956, 124, 79 and Levy J. et al, Therapie 1965, 20, 265) and to despair (according to Porsolt P. D. et al, Eur. J. Pharmacol., 1978, 47, 379-91).
# % of inhibition of ptosis induced by reserpine
# as a function of the dose administered orally
# [5] = tested on: trembling induced by oxotremorine; assay: Antagonism of trembling induced by oxotremorine, Table 7; format: in vivo; settings: read-out: % of inhibition of trembling induced by oxotremorine
# Text: as §1, §2
# % of inhibition of trembling induced by
# oxotremorine as a function of the dose
# (§3) administered expressed in mg/kg
# [6] = tested on: salivation induced by pilocarpine; assay: Inhibition of salivation induced by pilocarpine (anticholinergic activity), Table 9; format: in vivo; settings: oral
# Text: as §1
# Certain products manifest an anticholinergic activity evidenced in the inhibition test of salivation induced by pilocarpine (Table 9).
# % of inhibition of salivation induced by
# pilocarpine as a function of the dose
# as §3
# [7] = tested on: number of displacements of the animal; assay: Four plates test (anxiolytic activity), Table 5; format: in vivo; settings: oral, mouse
# Text: as §1
# A certain number of products manifest an anxiolytic activity evidenced in the test with the four plates with the mouse (Table 5).
# % of increase in the number of displacements of the
# animal as a function of the dose expressed in mg/kg
# despair = assay: Test of despair (Porsolt), Table 8; format: in vivo; settings: oral
# Text: as §1, §2
# Test of despair: % of antagonism as a function
# of the dose administered orally and expressed
structure (smiles),measurement,setting,value
COc1ccc(C=Nc2cc3c(cc2CCN(C)C)OCO3)cc1 [COR 01 210],mortality at 336 h,[1]; 750 mg/kg,0%
same,mortality at 336 h,[1]; 1000 mg/kg,10%
same,mortality at 336 h,[1]; 2000 mg/kg,20%
same,inhibition in vivo at 100 mg/kg,phenylbenzoquinone (PBQ),27%
same,inhibition in vivo at 200 mg/kg,phenylbenzoquinone (PBQ),33%
same,change in vivo at 100 mg/kg,"[2]; Mus musculus, po",-20%
same,change in vivo at 150 mg/kg,"[2]; Mus musculus, po",-26%
same,change in vivo at 200 mg/kg,"[2]; Mus musculus, po",-72%
same,% of activity vis-a-vis the stereotype induced by apomorphine,[3]; 75 mg/kg,-33%
same,% of activity vis-a-vis the stereotype induced by apomorphine,[3]; 150 mg/kg,-33%
same,antagonism vis-a-vis the stereotype with apomorphine,[3],manifest an antagonism
same,change in vivo at 50 mg/kg,[4]; po,-21%
same,change in vivo at 100 mg/kg,[4]; po,-38%
same,change in vivo at 50 mg/kg,[5]; po,-50%
same,change in vivo at 75 mg/kg,[5]; po,-40%
same,change in vivo at 100 mg/kg,[5]; po,-50%
same,change in vivo at 150 mg/kg,[5]; po,-30%
same,change in vivo at 200 mg/kg,[5]; po,-50%
CN(C)CCc1cc2c(cc1N=Cc1ccccc1)OCO2 [COR 01 209],mortality at 336 h,[1]; 1000 mg/kg,0%
same,mortality at 336 h,[1]; 1500 mg/kg,40%
same,mortality at 336 h,[1]; 2000 mg/kg,60%
same,inhibition in vivo at 200 mg/kg,phenylbenzoquinone (PBQ),17%
same,change in vivo at 5 mg/kg,"[2]; Mus musculus, po",-28%
same,change in vivo at 25 mg/kg,"[2]; Mus musculus, po",-38%
same,change in vivo at 50 mg/kg,"[2]; Mus musculus, po",-32%
same,change in vivo at 100 mg/kg,"[2]; Mus musculus, po",-37%
same,change in vivo at 200 mg/kg,"[2]; Mus musculus, po",-20%
same,% of activity vis-a-vis the stereotype induced by apomorphine,[3]; 50 mg/kg,-54%
same,% of activity vis-a-vis the stereotype induced by apomorphine,[3]; 100 mg/kg,-51%
same,% of activity vis-a-vis the stereotype induced by apomorphine,[3]; 200 mg/kg,-42%
same,antagonism vis-a-vis the stereotype with apomorphine,[3],manifest an antagonism
same,change in vivo at 200 mg/kg,[4]; po,-45%
same,change in vivo at 50 mg/kg,[5]; po,-60%
same,change in vivo at 75 mg/kg,[5]; po,-60%
same,change in vivo at 100 mg/kg,[5]; po,-55%
same,change in vivo at 150 mg/kg,[5]; po,-60%
same,change in vivo at 200 mg/kg,[5]; po,-30%
CN(C)CCc1cc2c(cc1N=Cc1ccc[n+]([O-])c1)OCO2 [COR 01 203],mortality at 336 h,[1]; 1000 mg/kg,0%
same,mortality at 336 h,[1]; 1500 mg/kg,10%
same,mortality at 336 h,[1]; 2000 mg/kg,40%
same,inhibition in vivo at 50 mg/kg,"phenylbenzoquinone (PBQ); read-out: % of analgesic activity, 50 mg/kg, male Swiss mouse, PBQ",0%
same,inhibition in vivo at 100 mg/kg,phenylbenzoquinone (PBQ),36%
same,inhibition in vivo at 200 mg/kg,phenylbenzoquinone (PBQ),47%
same,change in vivo at 100 mg/kg,[4]; po,-33%
same,change in vivo at 200 mg/kg,[4]; po,-27%
same,change in vivo at 50 mg/kg,[5]; po,-70%
same,change in vivo at 100 mg/kg,[5]; po,-50%
same,change in vivo at 200 mg/kg,[5]; po,-20%
same,% of inhibition of salivation induced by pilocarpine,[6]; 50 mg/kg,-32%
same,% of inhibition of salivation induced by pilocarpine,[6]; 200 mg/kg,-30%
C(=Nc1cc2c(cc1CCN1CCCC1)OCO2)c1cccnc1 [COR 01 173],mortality at 336 h,[1]; 500 mg/kg,0%
same,mortality at 336 h,[1]; 1000 mg/kg,30%
same,change in vivo at 5 mg/kg,"[2]; 5 mg/kg, oral, mouse, 5 minutes",-33%
same,change in vivo at 25 mg/kg,"[2]; 25 mg/kg, oral, mouse, 5 minutes",-13%
same,change in vivo at 50 mg/kg,"[2]; 50 mg/kg, oral, mouse, 5 minutes",-29%
same,change in vivo at 75 mg/kg,"[2]; 75 mg/kg, oral, mouse, 5 minutes",-26%
same,change in vivo at 100 mg/kg,"[2]; 100 mg/kg, oral, mouse, 5 minutes",-50%
same,change in vivo at 150 mg/kg,"[2]; 150 mg/kg, oral, mouse, 5 minutes",-55%
same,change in vivo at 200 mg/kg,"[2]; 200 mg/kg, oral, mouse, 5 minutes",-90%
same,% of increase in the number of displacements of the animal,[7]; 10 mg/kg,+30%
same,% of increase in the number of displacements of the animal,[7]; 20 mg/kg,+47%
same,% of increase in the number of displacements of the animal,[7]; 50 mg/kg,+60%
same,% of increase in the number of displacements of the animal,[7]; 75 mg/kg,+82%
same,change in vivo at 50 mg/kg,"[4]; 50 mg/kg, oral",-12%
same,change in vivo at 75 mg/kg,"[4]; 75 mg/kg, oral",-21%
same,change in vivo at 100 mg/kg,"[4]; 100 mg/kg, oral",-23%
same,change in vivo at 25 mg/kg,"[5]; 25 mg/kg, oral",-20%
same,change in vivo at 50 mg/kg,"[5]; 50 mg/kg, oral",-20%
same,change in vivo at 75 mg/kg,"[5]; 75 mg/kg, oral",-40%
same,change in vivo at 100 mg/kg,"[5]; 100 mg/kg, oral",-60%
same,change in vivo at 150 mg/kg,"[5]; 150 mg/kg, oral",-70%
same,Test of despair: % of antagonism,despair; 50 mg/kg,-18%
same,Test of despair: % of antagonism,despair; 100 mg/kg,-41%
same,Test of despair: % of antagonism,despair; 200 mg/kg,-53%
same,% of inhibition of salivation induced by pilocarpine,[6]; 75 mg/kg,-39%
same,% of inhibition of salivation induced by pilocarpine,[6]; 100 mg/kg,-48%
same,% of inhibition of salivation induced by pilocarpine,[6]; 200 mg/kg,-76%
